Data reported in patent US4404217A, “3-Indolyl alkylene amino propanols and cardiovascular compositions thereof” (C. M. Industries, priority 1979, dated 1983).
Where two headings read alike, the source gives them in different places.

Assays:
[1] = biological target: T1, β adrenergic receptors (β2) (Canis lupus familiaris, UniProt P54833); test: Antagonism of the effects of isoprenaline, hypotension (β2), anaesthetized dog, IV; type: in vivo; conditions: read-out: ID50 ISOPRENALINE β2
T1 construct: The dog is anaesthetized using sodium pentobarbital; from tissue; host or cells: whole anaesthetized dog (vasculature)
T1 sequence (P54833 whole entry): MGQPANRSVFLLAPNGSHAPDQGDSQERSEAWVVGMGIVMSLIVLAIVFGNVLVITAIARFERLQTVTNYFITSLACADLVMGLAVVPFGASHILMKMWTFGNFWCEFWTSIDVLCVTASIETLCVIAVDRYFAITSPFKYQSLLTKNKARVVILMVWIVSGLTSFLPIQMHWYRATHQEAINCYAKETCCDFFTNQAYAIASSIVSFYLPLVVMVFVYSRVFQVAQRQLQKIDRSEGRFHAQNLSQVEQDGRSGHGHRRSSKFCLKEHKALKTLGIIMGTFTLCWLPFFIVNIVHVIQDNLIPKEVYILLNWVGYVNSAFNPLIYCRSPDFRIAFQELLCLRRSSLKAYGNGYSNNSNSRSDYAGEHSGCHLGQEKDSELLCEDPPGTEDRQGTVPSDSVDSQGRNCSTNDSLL
Protocol: (§1) The dog is anaesthetized using sodium pentobarbital, administered by the IV route at a dose of 30 mg/kg. A cannula placed in the saphenous vein allows the intra-venous injections of the products. The animal is submitted to intubation and is allowed to breathe spontaneously.
(§2) The cardiac frequency and the systemic arterial pressure are studied and the variations of these parameters are observed after intra-venous injection of the product to be tested. Each product is tested with increasing doses.
The antagonism of the products with respect to the β stimulant cardio-vascular effects of isoprenaline on the β adrenergic receptors has been sought. […] The last column indicates the cardioselectivity (β1 >β2) or a low cardioselectivity β1 ≥β2, or no cardioselectivity β1 <β2 and β1 =β2.

[2] = biological target: T2, β adrenergic receptors (β1) (Canis lupus familiaris, UniProt P79148); test: Antagonism of the effects of isoprenaline, tachycardia (β1), anaesthetized dog, IV; type: in vivo; conditions: for cardioselectivity β1 - β2 / ED50: dog; for cardioselectivity β1 - β2: isoprenaline antagonism, β1 versus β2; for ED50: read-out: ID50 ISOPRENALINE β1; for cardioselective in vivo (selectively inhibit the cardiac receptors): test with isoprenaline
T2 construct: The dog is anaesthetized using sodium pentobarbital; from tissue; host or cells: whole anaesthetized dog (heart)
T2 sequence (P79148 whole entry): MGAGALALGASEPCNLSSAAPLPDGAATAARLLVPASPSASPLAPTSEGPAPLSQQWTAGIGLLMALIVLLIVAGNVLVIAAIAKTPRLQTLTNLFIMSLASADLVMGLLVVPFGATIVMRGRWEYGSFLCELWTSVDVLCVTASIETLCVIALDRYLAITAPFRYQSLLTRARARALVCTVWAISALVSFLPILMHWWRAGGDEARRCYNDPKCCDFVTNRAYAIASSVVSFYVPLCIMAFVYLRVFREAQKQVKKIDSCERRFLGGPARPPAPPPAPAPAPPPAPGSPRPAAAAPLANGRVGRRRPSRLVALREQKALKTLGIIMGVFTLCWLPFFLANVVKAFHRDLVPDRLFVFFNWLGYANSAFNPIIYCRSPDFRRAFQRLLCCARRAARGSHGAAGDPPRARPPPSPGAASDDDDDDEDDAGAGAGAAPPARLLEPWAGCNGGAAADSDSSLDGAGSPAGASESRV

[3] = tested on: α adrenergic receptors; test: Antagonism of the effects of noradrenaline (pressure response), anaesthetized dog, IV; type: in vivo; conditions: 50% inhibition of pressure response to noradrenaline
Protocol: as §1, §2
The antagonism of the products with respect to the vascular effects provoked by the IV administration of noradrenaline on the α adrenergic receptors has been sought. The results presented in Table III are expressed in ID50 : it is the dose (mg/kg) which provokes the inhibition by 50% of the pressure response due to the IV administration of noradrenaline.

[4] = biological target: T3, β1 receptor (Canis lupus familiaris, UniProt P79148); test: Displacement of 3H dihydroalprenolol, plasmic membranes of hearts of dogs; type: binding, dog; conditions: for affinity for β1 receptors (heart) versus β2 receptors (lungs): in vitro, compared with lung β2 (A5)
T3 construct: plasmic membranes of hearts of dogs (β1 receptor); from tissue; host or cells: dog heart plasma membranes
T3 sequence (P79148 whole entry): as above
Protocol: (§3) The binding tests are effected on suspensions of plasmic membranes coming from various organs. The suspensions of membranes are placed in incubation with the tritiated ligand and various concentrations of products to be tested. After incubation, each test is filtered on GFB(Whatman) filter, the filters are dried and introduced into counting flasks. The measurement of the radioactivity is assessed by scintillation in a liquid medium.
(§4) The tests were made on plasmic membranes of hearts of dogs (β1 receptor) and lungs of rats (β2 receptors), in the presence of ^3 H dihydroalprenolol 4×10^-9 M.

[5] = biological target: T4, α2 receptor (Rattus norvegicus, UniProt P22909); test: Displacement of 3H clonidine, plasmic membranes of rat brains; type: binding; conditions: for affinity for the receptor with clonidine (α2): in vitro
T4 construct: plasmic membranes of rat brains; from tissue; host or cells: rat brain plasma membranes
T4 sequence (P22909 1-465): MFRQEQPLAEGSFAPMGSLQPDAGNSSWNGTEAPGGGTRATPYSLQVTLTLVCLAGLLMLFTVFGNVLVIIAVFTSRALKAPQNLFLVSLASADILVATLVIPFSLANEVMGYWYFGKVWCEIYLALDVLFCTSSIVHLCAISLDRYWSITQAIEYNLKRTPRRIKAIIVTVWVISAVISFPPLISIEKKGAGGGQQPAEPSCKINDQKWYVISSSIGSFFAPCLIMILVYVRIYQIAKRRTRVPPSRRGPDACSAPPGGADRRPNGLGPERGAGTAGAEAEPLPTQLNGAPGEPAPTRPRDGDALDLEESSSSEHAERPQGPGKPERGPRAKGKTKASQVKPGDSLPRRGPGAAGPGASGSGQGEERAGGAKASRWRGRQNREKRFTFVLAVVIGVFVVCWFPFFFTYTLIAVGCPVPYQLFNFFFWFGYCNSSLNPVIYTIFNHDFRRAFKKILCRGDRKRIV
Protocol: as §3
(§5) The tests were made on plasmic membranes of rat brains, in the presence of ^3 H clonidine 1.2×10^-9 M (α2 receptor) and of ^3 H WB4101 (N-[2-(2.6dimethoxyphenoxy)ethyl]1.4benzodioxane-2-methylamine), 0.2×10^-9 M (α1 receptor).

[6] = biological target: α1 receptor; test: Displacement of 3H WB 4101, plasmic membranes of rat brains; type: binding; conditions: for EC50: read-out: EC50 of DISPLACEMENT of 3H WB 4101, rat brain membranes, 3H WB4101 0.2×10^-9 M; for affinity for the receptor with WB 4101 (α1): in vitro
Protocol: as §3, §5

[7] = biological target: T5, β2 receptors (Rattus norvegicus, UniProt P10608); test: Displacement of 3H dihydroalprenolol, plasmic membranes of lungs of rats; type: binding
T5 construct: lungs of rats (β2 receptors); from tissue; host or cells: rat lung plasma membranes
T5 sequence (P10608 whole entry): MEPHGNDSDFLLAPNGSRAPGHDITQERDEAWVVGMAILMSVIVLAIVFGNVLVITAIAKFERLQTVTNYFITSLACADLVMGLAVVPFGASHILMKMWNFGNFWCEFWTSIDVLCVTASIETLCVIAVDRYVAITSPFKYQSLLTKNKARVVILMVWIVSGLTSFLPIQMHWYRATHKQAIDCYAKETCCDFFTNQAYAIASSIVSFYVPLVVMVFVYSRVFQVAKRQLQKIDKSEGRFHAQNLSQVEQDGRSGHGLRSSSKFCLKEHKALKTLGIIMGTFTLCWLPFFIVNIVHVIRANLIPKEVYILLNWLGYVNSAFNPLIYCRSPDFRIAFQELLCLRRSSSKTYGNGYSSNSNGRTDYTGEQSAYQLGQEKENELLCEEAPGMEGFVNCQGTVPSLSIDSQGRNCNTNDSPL
Protocol: as §3, §4

[8] = tested on: platelet aggregation; test: Anti-aggregating activity, BORN technique, plasma rich in platelets, ADP; type: cell-based, human; conditions: human platelet-rich plasma; for IC50: ADP, range over all products tested, read-out: concentration for inhibiting by 50% the maximum rate of aggregation
Protocol: The anti-aggregating activity of the CM 7743, 7744, 7824, 7854, 7859 and 7874 has been studied according to the BORN technique on plasma rich in platelets of human origin. ADP has been used as indicator of platelet aggregation. […] The required concentration for inhibiting by 50% the maximum rate of aggregation varies from 45 to 100 μM.

[9] = Cardiac frequency and arterial pressure in the anaesthetized dog after intravenous injection; type: in vivo; conditions: i.v. route, anaesthetised dog
Protocol: as §1, §2

[10] = IV, 50% inhibition of isoprenaline hypotension
[11] = dog heart membranes, 3H dihydroalprenolol 4×10^-9 M
[12] = rat brain membranes, 3H clonidine 1.2×10^-9 M
[13] = IV, 50% inhibition of isoprenaline tachycardia
[14] = rat lung membranes, 3H dihydroalprenolol 4×10^-9 M

| ED50 [1, 10] [mg/kg] | EC50 [4, 11] [nM] | EC50 [5, 12] [nM] | ED50 [2, 13] [mg/kg] | EC50 [7, 14] [nM] | SMILES | cardioselectivity β1 - β2 ([2]; IV) | ED50 ([2]; iv) [mg/kg] | cardioselective in vivo (selectively inhibit the cardiac receptors) [2] | ID50 NORADRENALINE α [3] [mg/kg] | affinity for β1 receptors (heart) versus β2 receptors (lungs) [4] | affinity for the receptor with clonidine (α2) [5] | EC50 [6] [nM] | EC50 [7] [nM] | affinity for the receptor with WB 4101 (α1) [6] | ED50 ([1]; iv) [mg/kg] | EC50 [4] [nM] | inhibition of the platelet response with respect to the ADP [8] | IC50 [8] [nM] | reduction in the peripheral arterial pressure [9] | EC50 [5] [nM] |
| --- | --- | --- | --- | --- | --- | --- | --- | --- | --- | --- | --- | --- | --- | --- | --- | --- | --- | --- | --- | --- |
| > 3 | – | 29.5 | 1 to 3 | – | NC(=O)Cc1ccc(OCC(O)CNCCc2c[nH]c3ccccc23)cc1 (centres unmarked) [compound 7748] | β1 > β2 (cardioselectivity (β1 >β2)) | – | cardioselective in vivo | 1 | clearly greater affinity for the β1 receptors (heart) than for the β2 receptors (lungs) | no affinity | 2.7 | – | – | – | – | – | – | – | – |
| – | – | – | – | – | Cc1ccccc1OCC(O)CNC(C)Cc1c[nH]c2ccc(F)cc12 (centres unmarked) [compound 7983] | β1 > β2 (cardioselectivity (β1 >β2)) | 0.3 | cardioselective in vivo | > 0.3 | – | – | 600 | 47 | have an affinity | > 0.3 | 19 | – | – | – | – |
| 0.02 to 0.1 | 16 | 6 | 0.01 to 0.1 | 3.7 | Cc1ccccc1OCC(O)CNC(C)(C)Cc1c[nH]c2ccccc12 (centres unmarked) [compound 7854] | β1 ≥ β2 (low cardioselectivity β1 ≥β2) | – | – | 0.1 | – | – | 320 | – | – | – | – | inhibited the platelet response | 45000 to 100000 | – | – |
| 0.3 to 1 | 135 | – | 0.3 | 82 | Cc1ccccc1OC[C@@H](O)CN[C@@H](CO)Cc1c[nH]c2ccccc12 [compound 7899] | β1 ≥ β2 (low cardioselectivity β1 ≥β2) | – | – | > 3 | – | – | – | – | – | – | – | – | – | reduction in the peripheral arterial pressure | – |
| – | – | – | – | – | CC(Cc1c[nH]c2ccccc12)NCC(O)COc1ccccc1Cl (centres unmarked) [compound 7806] | – | 0.3 | – | 0.3 | – | no affinity | 310 | 12 | have an affinity | ≥ 0.1 | 27.5 | – | – | reduction in the peripheral arterial pressure | 12 |
| > 3 | 7400 | – | > 3 | 3800 | Cc1ccccc1OC[C@H](O)CN[C@@H](CO)Cc1c[nH]c2ccccc12 [compound 7902] | β1 < β2 (no cardioselectivity β1 <β2) | – | – | > 3 | – | – | – | – | – | – | – | – | – | reduction in the peripheral arterial pressure | – |
| – | – | – | – | – | CCC(=O)c1ccc(OCC(O)CNC(C)Cc2c[nH]c3ccccc23)c(Cl)c1 (centres unmarked) [compound 7743] | β1 ≥ β2 (low cardioselectivity β1 ≥β2) | 1 to 3 | – | 3 | – | no affinity | – | – | – | ≥ 3 | – | inhibited the platelet response | 45000 to 100000 | – | – |
| 1 | 2050 | 29.5 | 3 | 2000 | Cc1ccccc1OC[C@H](O)CN[C@H](CO)Cc1c[nH]c2ccccc12 [compound 7903] | β1 < β2 (no cardioselectivity β1 <β2) | – | – | 3 | – | no affinity | 1.9 | – | – | – | – | – | – | reduction in the peripheral arterial pressure | – |
| 0.3 to 1 | 51 | – | 0.1 to 0.3 | 64 | Cc1ccccc1OC[C@@H](O)CN[C@H](CO)Cc1c[nH]c2ccccc12 [compound 7898] | β1 ≥ β2 (low cardioselectivity β1 ≥β2) | – | – | > 3 | – | – | – | – | – | – | – | – | – | reduction in the peripheral arterial pressure | – |

| SMILES | ED50 [1, 10] [mg/kg] | EC50 [4, 11] [nM] | EC50 [5, 12] [nM] | ED50 [2, 13] [mg/kg] | EC50 [7, 14] [nM] | cardioselectivity β1 - β2 ([2]; IV) | ED50 ([2]; iv) [mg/kg] | cardioselective in vivo (selectively inhibit the cardiac receptors) [2] | ID50 NORADRENALINE α [3] [mg/kg] | affinity for β1 receptors (heart) versus β2 receptors (lungs) [4] | affinity for the receptor with clonidine (α2) [5] | EC50 [6] [nM] | EC50 [7] [nM] | affinity for the receptor with WB 4101 (α1) [6] | ED50 ([1]; iv) [mg/kg] | EC50 [4] [nM] | inhibition of the platelet response with respect to the ADP [8] | IC50 [8] [nM] | reduction in the peripheral arterial pressure [9] | EC50 [5] [nM] |
| --- | --- | --- | --- | --- | --- | --- | --- | --- | --- | --- | --- | --- | --- | --- | --- | --- | --- | --- | --- | --- |
| CCCC(=O)Nc1ccc(OCC(O)CNC(C)Cc2c[nH]c3ccccc23)c(C(C)=O)c1 (centres unmarked) [compound 7798] | ≥ 3 | 550 | – | – | – | β1 > β2 (cardioselectivity (β1 >β2)) | 1 | cardioselective in vivo | > 3 | clearly greater affinity for the β1 receptors (heart) than for the β2 receptors (lungs) | – | – | – | – | – | – | – | – | – | – |
| CC(Cc1c[nH]c2ccc(Cl)cc12)NCC(O)COc1ccc(CC(N)=O)cc1 (centres unmarked) [compound 7859] | ≥ 3 | 625 | – | – | 1000 | β1 > β2 (cardioselectivity (β1 >β2)) | 0.3 to 1 | cardioselective in vivo | 0.3 to 3 | – | no affinity | 2.3 | – | – | – | – | inhibited the platelet response | 45000 to 100000 | – | 19 |
| CC(Cc1c[nH]c2ccccc12)NCC(O)COc1ccccc1C(=O)c1ccccc1 (centres unmarked) [compound 7904] | 0.1 | – | – | – | – | β1 ≥ β2 (low cardioselectivity β1 ≥β2) | ≤ 0.1 | – | > 0.3 | – | – | – | 14 | – | – | 7.9 | – | – | – | – |
| CC(Cc1c[nH]c2ccc(F)cc12)NCC(O)COc1ccccc1 (centres unmarked) [compound 40038] | > 0.3 | – | – | – | – | β1 > β2 (cardioselectivity (β1 >β2)) | 0.1 | cardioselective in vivo | 0.1 | – | no affinity | – | 29 | – | – | 34 | – | – | reduction in the peripheral arterial pressure | – |
| Cc1cccc(OCC(O)CNC(C)Cc2c[nH]c3ccccc23)c1 (centres unmarked) [compound 7782] | ≥ 3 | – | 30 | – | – | β1 > β2 (cardioselectivity (β1 >β2)) | 0.1 to 0.3 | cardioselective in vivo | 0.3 | – | no affinity | – | 61.5 | – | – | 53 | – | – | – | – |
